Results reported in ChEMBL document CHEMBL3046832, “Synthesis of some sulfonamides, disubstituted sulfonylureas or thioureas and some structurally related variants. A class of promising antitumor agents” (2007).

Key:
Assay type in all cases: functional
[1] = tested on: MDA-MB-435; test: Cytotoxicity against Homo sapiens (human) MDA-MB-435 cells after 48 hr by SRB assay; conditions: MDA-MB-435, 48 h
[2] = tested on: M14; test: Cytotoxicity against Homo sapiens (human) M14 cells after 48 hr by SRB assay; conditions: M14, 48 h
[3] = tested on: LOX IMVI; test: Cytotoxicity against Homo sapiens (human) LOXIMVI cells after 48 hr by SRB assay
[4] = tested on: U-251; test: Cytotoxicity against Homo sapiens (human) U251 cells after 48 hr by SRB assay; conditions: U-251, 48 h
[5] = tested on: SNB-75; test: Cytotoxicity against Homo sapiens (human) SNB75 cells after 48 hr by SRB assay; conditions: SNB-75, 48 h
[6] = tested on: Hs-578T; test: Cytotoxicity against Homo sapiens (human) Hs578T cells after 48 hr by SRB assay
[7] = tested on: MCF7; test: Cytotoxicity against Homo sapiens (human) MCF7 cells after 48 hr by SRB assay; conditions: MCF7, 48 h
[8] = tested on: MDA-MB-231; test: Cytotoxicity against Homo sapiens (human) MDA-MB-231 cells after 48 hr by SRB assay; conditions: MDA-MB-231, 48 h
[9] = tested on: DU-145; test: Cytotoxicity against Homo sapiens (human) DU145 cells after 48 hr by SRB assay; conditions: DU-145, 48 h
[10] = tested on: UO-31; test: Cytotoxicity against Homo sapiens (human) UO31 cells after 48 hr by SRB assay; conditions: UO-31, 48 h
[11] = tested on: CAKI-1; test: Cytotoxicity against Homo sapiens (human) Caki1 cells after 48 hr by SRB assay; conditions: CAKI-1, 48 h
[12] = tested on: ACHN; test: Cytotoxicity against Homo sapiens (human) ACHN cells after 48 hr by SRB assay
[13] = tested on: 786-0; test: Cytotoxicity against Homo sapiens (human) 786-0 cells after 48 hr by SRB assay; conditions: 786-0, 48 h
[14] = tested on: OVCAR-8; test: Cytotoxicity against Homo sapiens (human) OVCAR8 cells after 48 hr by SRB assay; conditions: OVCAR-8, 48 h
[15] = tested on: OVCAR-5; test: Cytotoxicity against Homo sapiens (human) OVCAR5 cells after 48 hr by SRB assay; conditions: OVCAR-5, 48 h
[16] = tested on: OVCAR-4; test: Cytotoxicity against Homo sapiens (human) OVCAR4 cells after 48 hr by SRB assay; conditions: OVCAR-4, 48 h
[17] = tested on: IGROV-1; test: Cytotoxicity against Homo sapiens (human) IGROV1 cells after 48 hr by SRB assay; conditions: IGROV-1, 48 h
[18] = tested on: OVCAR-3; test: Cytotoxicity against Homo sapiens (human) OVCAR3 cells after 48 hr by SRB assay; conditions: OVCAR-3, 48 h
[19] = tested on: UACC-62; test: Cytotoxicity against Homo sapiens (human) UACC62 cells after 48 hr by SRB assay; conditions: UACC-62, 48 h
[20] = tested on: UACC-257; test: Cytotoxicity against Homo sapiens (human) UACC257 cells after 48 hr by SRB assay; conditions: UACC-257, 48 h
[21] = tested on: SK-MEL-5; test: Cytotoxicity against Homo sapiens (human) SK-MEL-5 cells after 48 hr by SRB assay; conditions: SK-MEL-5, 48 h
[22] = Cytotoxicity against Homo sapiens (human) breast cancer cells after 48 hr by SRB assay; conditions: Cancer cell lines
[23] = Cytotoxicity against Homo sapiens (human) prostate cancer cells after 48 hr by SRB assay; conditions: Cancer cell lines
[24] = Cytotoxicity against Homo sapiens (human) renal cancer cells after 48 hr by SRB assay; conditions: Cancer cell lines
[25] = Cytotoxicity against Homo sapiens (human) melanoma cells after 48 hr by SRB assay; conditions: Melanoma cell
[26] = Cytotoxicity against Homo sapiens (human) CNS cancer cells after 48 hr by SRB assay; conditions: Cancer cell lines
[27] = Cytotoxicity against Homo sapiens (human) colon cancer cells after 48 hr by SRB assay; conditions: Cancer cell lines
[28] = Cytotoxicity against Homo sapiens (human) non-small cell lung cancer cells after 48 hr by SRB assay; conditions: Cancer cell lines
[29] = tested on: NCI-H460; test: Cytotoxicity against Homo sapiens (human) NCI-H460 cells assessed as cellular growth after 48 hr by Alamar blue assay; parameters: concentration or dose not given beside the values
[30] = Cytotoxicity against Homo sapiens (human) leukemia cells after 48 hr by SRB assay; conditions: Leukemia cell
[31] = tested on: T47D; test: Cytotoxicity against Homo sapiens (human) T47D cells after 48 hr by SRB assay
[32] = tested on: SF-539; test: Cytotoxicity against Homo sapiens (human) SF539 cells after 48 hr by SRB assay; conditions: SF-539, 48 h
[33] = tested on: SF-295; test: Cytotoxicity against Homo sapiens (human) SF295 cells after 48 hr by SRB assay; conditions: SF-295, 48 h
[34] = tested on: SF-268; test: Cytotoxicity against Homo sapiens (human) SF268 cells after 48 hr by SRB assay; conditions: SF-268, 48 h
[35] = tested on: HCT-15; test: Cytotoxicity against Homo sapiens (human) HCT15 cells after 48 hr by SRB assay; conditions: HCT-15, 48 h
[36] = tested on: HT-29; test: Cytotoxicity against Homo sapiens (human) HT-29 cells after 48 hr by SRB assay; conditions: HT-29, 48 h
[37] = tested on: HCC 2998; test: Cytotoxicity against Homo sapiens (human) HCC2998 cells after 48 hr by SRB assay; conditions: HCC 2998, 48 h
[38] = tested on: NCI-H522; test: Cytotoxicity against Homo sapiens (human) NCI-H522 cells after 48 hr by SRB assay; conditions: NCI-H522, 48 h
[39] = tested on: COLO 205; test: Cytotoxicity against Homo sapiens (human) COLO205 cells after 48 hr by SRB assay; conditions: COLO 205, 48 h
[40] = tested on: NCI-H23; test: Cytotoxicity against Homo sapiens (human) NCI-H23 cells after 48 hr by SRB assay; conditions: NCI-H23, 48 h
[41] = Cytotoxicity against Homo sapiens (human) NCI-H322 cells after 48 hr by SRB assay; conditions: NCI-H322, 48 h
[42] = tested on: EKVX; test: Cytotoxicity against Homo sapiens (human) EKVX cells after 48 hr by SRB assay
[43] = tested on: HOP-62; test: Cytotoxicity against Homo sapiens (human) HOP62 cells after 48 hr by SRB assay; conditions: HOP-62, 48 h
[44] = tested on: A549; test: Cytotoxicity against Homo sapiens (human) A549 cells after 48 hr by SRB assay; conditions: A549, 48 h
[45] = tested on: MOLT-4; test: Cytotoxicity against Homo sapiens (human) MOLT4 cells after 48 hr by SRB assay; conditions: MOLT-4, 48 h
[46] = tested on: CCRF-CEM; test: Cytotoxicity against Homo sapiens (human) CCRF-CEM cells after 48 hr by SRB assay
[47] = tested on: MCF7; test: Cytotoxicity against Homo sapiens (human) MCF7 cells assessed as cellular growth after 48 hr by Alamar blue assay; parameters: concentration or dose not given beside the values

## NS(=O)(=O)c1ccc(-n2nc3c(c2-c2cccs2)Cc2ccccc2-3)cc1
[1]
  GI50: 11.8 µM
[2]
  GI50: 17.2 µM
[3]
  GI50: 6.58 µM
[4]
  GI50: 12.3 µM
[5]
  GI50: 25.5 µM
[6]
  GI50: 16.1 µM
[7]
  GI50: > 100 µM
[8]
  GI50: 17.3 µM
[9]
  GI50: 24.1 µM
[10]
  GI50: 12.2 µM
[11]
  GI50: 10.1 µM
[12]
  GI50: 11.7 µM
[13]
  GI50: 17.1 µM
[14]
  GI50: 20.5 µM
[15]
  GI50: 18.5 µM
[16]
  GI50: 29.9 µM
[17]
  GI50: 2.49 µM
[18]
  GI50: 14.4 µM
[19]
  GI50: 11.5 µM
[20]
  GI50: 23.2 µM
[21]
  GI50: 10.5 µM
[22]
  GI50: 26.1 µM
  TGI: 34.7 µM
[23]
  GI50: 22.3 µM
  TGI: 22.3 µM
[24]
  GI50: 13.3 µM
  TGI: 29.7 µM
[25]
  GI50: 17.5 µM
  TGI: 38.9 µM
[26]
  GI50: 31.8 µM
  TGI: 42 µM
[27]
  GI50: 14.9 µM
  TGI: 37.2 µM
[28]
  GI50: 21.7 µM
  TGI: 31.3 µM
[29]
  Activity: <=32%
[30]
  GI50: 3.3 µM
  TGI: 15.7 µM
[31]
  GI50: 12.8 µM
[32]
  GI50: 21.1 µM
[33]
  GI50: 13.8 µM
[34]
  GI50: > 100 µM
[35]
  GI50: 12 µM
[36]
  GI50: 22.9 µM
[37]
  GI50: 12.8 µM
[38]
  GI50: 12.4 µM
[39]
  GI50: 25.3 µM
[40]
  GI50: 11.9 µM
[41]
  GI50: 11.9 µM
[42]
  GI50: 11.9 µM
[43]
  GI50: 16.5 µM
[44]
  GI50: 20.7 µM
[45]
  GI50: 1.43 µM
[46]
  GI50: 4.24 µM
[47]
  Activity: <=32%

## NS(=O)(=O)c1ccc(N2N=C3c4ccccc4CC3C2c2cccs2)cc1 (stereo not given)
[1]
  GI50: 19.3 µM
[2]
  GI50: 26 µM
[3]
  GI50: 19.1 µM
[4]
  GI50: 19.4 µM
[5]
  GI50: 31.1 µM
[6]
  GI50: 28.7 µM
[7]
  GI50: > 100 µM
[8]
  GI50: 16.8 µM
[9]
  GI50: 14.5 µM
[10]
  GI50: 39.4 µM
[11]
  GI50: 19.6 µM
[12]
  GI50: 19.8 µM
[13]
  GI50: 17.6 µM
[14]
  GI50: 15.3 µM
[15]
  GI50: 26.6 µM
[16]
  GI50: > 100 µM
[17]
  GI50: 30 µM
[18]
  GI50: 24.8 µM
[19]
  GI50: 21.8 µM
[20]
  GI50: 29.7 µM
[21]
  GI50: 18 µM
[22]
  GI50: 38.3 µM
  TGI: 52.1 µM
[23]
  GI50: 18.3 µM
  TGI: 48.6 µM
[24]
  GI50: 21.9 µM
  TGI: 43.7 µM
[25]
  GI50: 41.5 µM
  TGI: 51 µM
[26]
  GI50: 36.4 µM
  TGI: 70.3 µM
[27]
  GI50: 28 µM
  TGI: 74.5 µM
[28]
  GI50: 29.6 µM
  TGI: 45.5 µM
[29]
  Activity: <=32%
[30]
  GI50: 35.1 µM
  TGI: 95.5 µM
[31]
  GI50: 66.9 µM
[32]
  GI50: 17.4 µM
[33]
  GI50: 16.2 µM
[34]
  GI50: > 100 µM
[35]
  GI50: 34.7 µM
[36]
  GI50: 26.1 µM
[37]
  GI50: 14.8 µM
[38]
  GI50: 39.3 µM
[39]
  GI50: 58.9 µM
[40]
  GI50: 20.3 µM
[41]
  GI50: 5.79 µM
[42]
  GI50: 15.9 µM
[43]
  GI50: 16.9 µM
[44]
  GI50: 13.1 µM
[45]
  GI50: 18.9 µM
[46]
  GI50: 31.8 µM
[47]
  Activity: <=32%

## O=C(Nc1ccccc1)NS(=O)(=O)c1ccc(N2N=C3c4ccccc4CC3C2c2cccnc2)cc1 (stereo not given)
[1]
  GI50: 21.4 µM
[2]
  GI50: 24.9 µM
[3]
  GI50: 15.4 µM
[4]
  GI50: 31.9 µM
[5]
  GI50: > 100 µM
[6]
  GI50: 40.7 µM
[7]
  GI50: 27 µM
[8]
  GI50: 19.8 µM
[9]
  GI50: 36.6 µM
[10]
  GI50: 48.8 µM
[11]
  GI50: 26.4 µM
[12]
  GI50: 23.6 µM
[13]
  GI50: 35.5 µM
[14]
  GI50: 27 µM
[15]
  GI50: 26.8 µM
[16]
  GI50: > 100 µM
[17]
  GI50: 16.2 µM
[18]
  GI50: 21.6 µM
[19]
  GI50: 17.8 µM
[20]
  GI50: 26.6 µM
[21]
  GI50: 23.6 µM
[22]
  GI50: 42.4 µM
  TGI: 87.8 µM
[23]
  GI50: 36.4 µM
  TGI: 52.1 µM
[24]
  GI50: 31.7 µM
  TGI: 86.4 µM
[25]
  GI50: 30.8 µM
  TGI: 49.3 µM
[26]
  GI50: 54.8 µM
  TGI: 87.6 µM
[27]
  GI50: 26.2 µM
  TGI: 78.7 µM
[28]
  GI50: 30 µM
  TGI: 56.4 µM
[29]
  Activity: <=32%
[30]
  GI50: 26.5 µM
  TGI: 91.4 µM
[31]
  GI50: 93 µM
[32]
  GI50: 30.6 µM
[33]
  GI50: 20.6 µM
[34]
  GI50: 62.1 µM
[35]
  GI50: 23.1 µM
[36]
  GI50: 37.9 µM
[37]
  GI50: 17.3 µM
[38]
  GI50: 17.7 µM
[39]
  GI50: 31.1 µM
[40]
  GI50: 20.8 µM
[41]
  GI50: 17.3 µM
[42]
  GI50: 27.8 µM
[43]
  GI50: 20.4 µM
[44]
  GI50: 29.2 µM
[45]
  GI50: 11.6 µM
[46]
  GI50: 40.9 µM
[47]
  Activity: <=32%
